Target: T1, hCRTH2 receptor (Homo sapiens, UniProt Q9Y5Y4)
T1 construct: expressed in transfected cells; host or cells: HEK293
T1 sequence (Q9Y5Y4 1-395): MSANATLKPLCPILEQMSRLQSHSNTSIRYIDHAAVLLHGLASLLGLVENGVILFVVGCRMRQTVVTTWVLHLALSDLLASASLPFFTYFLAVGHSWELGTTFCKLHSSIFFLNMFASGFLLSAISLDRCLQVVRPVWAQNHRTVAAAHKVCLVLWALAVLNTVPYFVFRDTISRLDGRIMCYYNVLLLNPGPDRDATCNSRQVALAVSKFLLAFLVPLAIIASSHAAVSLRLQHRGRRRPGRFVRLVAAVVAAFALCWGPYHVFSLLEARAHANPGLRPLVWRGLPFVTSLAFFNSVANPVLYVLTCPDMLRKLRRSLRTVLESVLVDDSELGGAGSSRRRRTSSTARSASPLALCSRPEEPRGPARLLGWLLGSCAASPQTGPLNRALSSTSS
Assay: Radioligand displacement assay (3H-PGD2) on hCRTH2 receptor membranes
Format: binding
Conditions: antagonistic activity
Protocol: First, recombinant HEK293-hCRTH2 cells were detached from culture plates into 5 ml buffer A/plate (Buffer A: 5 mM Tris, 1 mM MgCl2-6H2O pH=7.4) using a rubber policeman. Cells were then transferred into centrifugation tubes and centrifuged for 5 min at 400 g. The cell pellet was resuspended in the same buffer and tubes were frozen at −80° C. Cells were thawed and membrane fragments were generated by homogenization using a polytron homogenizer (30 seconds). The membrane fragments were then centrifuged at 3000 g for 20 minutes and resuspended in buffer C (Buffer C: 75 mM Tris, 25 mM MgCl2, 250 mM Saccharose pH 7.4). Aliquots of membrane fragments were stored at −20° C.
Binding assay was performed in a final assay volume of 250 μl. First, 25 μl of test compound, previously diluted in Binding-Buffer (Binding-Buffer: 50 mM Tris-Base, 100 mM NaCl, 1 mM EDTA, 0.1% BSA (protease free), 0.01% NaN3, 10 mM MnCl2, pH 7.0) was placed into each well. After addition of 75 μl Binding-Buffer, 50 μl of the radioligand ^3H-PGD2 (at 2.5 nM (220.000 dpm/well) from ANAWA ART0662) was added to each well. Binding assay was started by addition of 100 μl CRTH2 membrane fragments, reaching a final concentration of 20 μg/well. For non-specific binding, PGD2 was added to the reaction mixture to […] final concentration.
This assay mix was incubated for 90 minutes at room temperature and then filtered through a GF/C filter 96-well plate which was pre-soaked for 3 hours in 0.5% polyethyleneimine (PEI). The filter-wells were washed three times with ice cold Binding-Buffer. Then, 40 μl of Microscint-40 (Packard) was added to each well and the retained radioactivity quantified in a Topcount (Packard).

[1] = 3H-PGD2 displacement on HEK293-hCRTH2 membrane fragments
[2] = radioligand displacement (3H-PGD2), hCRTH2 receptor membranes
[3] = 3H-PGD2 radioligand displacement, HEK293-hCRTH2 membranes

SMILES	IC50 [1]	IC50 [3]	also measured
O=C(O)COc1ccc(F)cc1C1c2ccccc2CCN1C(=O)NCc1ccccc1Cl (racemic) [Example 203]	27.9 nM		
O=C(O)COc1ccc(F)cc1C1c2ccccc2CCN1C(=O)Oc1ccccc1 (racemic) [Example 169]	451 nM		
O=C(O)COc1ccc(Cl)cc1[C@@H]1c2ccccc2CCN1C(=O)[C@@H]1C[C@H]1c1cccc(F)c1 [Example 565, (4-Chloro-2-{(S)-2-[(1R,2R)-2-(3-fluoro-phenyl)-cyclopropanecarbonyl]-1,2,3,4-tetrahydro-isoquinolin-1-yl}-phenoxy)-acetic acid]			IC50 [2]: 2.64 nM
Cc1nc2ccccc2n1CCOC(=O)N1CCc2c(ccc(F)c2F)[C@H]1c1cc(Cl)ccc1OCC(=O)O [Example 318]		138 nM	
O=C(O)COc1ccc(Cl)cc1C1c2ccccc2CCN1C(=O)CCN1CCSC1=O (racemic) [Example 453]		312 nM	
CCn1c(C)c(CCC(=O)N2CCc3ccccc3C2c2cc(F)ccc2OCC(=O)O)c2ccccc21 (racemic) [Example 52, (±)-(2-{2-[3-(1-Ethyl-2-methyl-1H-indol-3-yl)-propionyl]-1,2,3,4-tetrahydro-isoquinolin-1-yl}-4-fluoro-phenoxy)-acetic acid]	600 nM		
Cc1nc(COC(=O)N2CCc3ccccc3[C@H]2c2cc(Cl)ccc2OCC(=O)O)cs1 [Example 278, (S)-1-(2-Carboxymethoxy-5-chloro-phenyl)-3,4-dihydro-1H-isoquinoline-2-carboxylic acid 2-methyl-thiazol-4-ylmethyl ester]	1.28 nM		
O=C(O)COc1ccc(F)cc1C1c2ccccc2CCN1C(=O)CCN1C(=O)COc2ccc(Cl)cc21 (racemic) [Example 56, (±)-(2-{2-[3-(6-Chloro-3-oxo-2,3-dihydro-benzo[1,4]oxazin-4-yl)-propionyl]-1,2,3,4-tetrahydro-isoquinolin-1-yl}-4-fluoro-phenoxy)-acetic acid]	735 nM		
COc1cccc2c1CCN(C(=O)OCc1ccccc1)C2c1cc(F)ccc1OCC(=O)O (racemic) [Example 35, (±)-1-(2-Carboxymethoxy-5-fluoro-phenyl)-5-methoxy-3,4-dihydro-1H-isoquinoline-2-carboxylic acid benzyl ester]	19.7 nM		
O=C(O)COc1ccc(Cl)cc1C1c2ccc(F)cc2CCN1C(=O)C1CC1c1ccccc1Cl (mixture of isomers) [Example 430, (±)-(4-Chloro-2-{2-[2-(trans-2-chloro-phenyl)-cyclopropanecarbonyl]-6-fluoro-1,2,3,4-tetrahydro-isoquinolin-1-yl}-phenoxy)-acetic acid]		9.37 nM	
O=C(O)COc1ccc(Cl)cc1C1c2ccccc2CN1C(=O)C1CC1c1cccc(Cl)c1 (stereo not drawn) [Example 524, (4-Chloro-2-{2-trans-[2-(3-chloro-phenyl)-cyclopropanecarbonyl]-2,3-dihydro-1H-isoindol-1-yl}-phenoxy)-acetic acid]		81.3 nM	
O=C(O)COc1ccc(Cl)cc1[C@@H]1c2ccc(F)c(F)c2CCN1C(=O)OCc1noc2ccccc12 [Example 323, (S)-1-(2-Carboxymethoxy-5-chloro-phenyl)-5,6-difluoro-3,4-dihydro-1H-isoquinoline-2-carboxylic acid benzo[d]isoxazol-3-ylmethyl ester]		1.2 nM	
CCCCOC(=O)N1CCc2ccccc2C1c1cc(F)ccc1OCC(=O)O (racemic) [Example 167]	42 nM		
O=C(O)COc1ccc(F)cc1C1c2cccc(C(F)(F)F)c2CCN1C(=O)OCc1ccccc1 (racemic) [Example 12, (±)-1-(2-Carboxymethoxy-5-fluoro-phenyl)-5-trifluoromethyl-3,4-dihydro-1H-isoquinoline-2-carboxylic acid benzyl ester]	4.59 nM		
CCn1c(C)c(CCC(=O)N2Cc3ccccc3C2c2cc(Cl)ccc2OCC(=O)O)c2ccccc21 (racemic) [Example 508]		127 nM	
Cc1cc(COC(=O)N2CCc3cc(F)ccc3[C@H]2c2cc(Cl)ccc2OCC(=O)O)n(C)n1 [Example 338, (S)-1-(2-Carboxymethoxy-5-chloro-phenyl)-6-fluoro-3,4-dihydro-1H-isoquinoline-2-carboxylic acid 2,5-dimethyl-2H-pyrazol-3-ylmethyl ester]		3.13 nM	
Cn1cnc2cc(OCC(=O)N3CCc4ccccc4C3c3cc(Cl)ccc3OCC(=O)O)cnc21 (racemic) [Example 483]		470 nM	
O=C(O)COc1ccc(Cl)cc1[C@@H]1c2ccccc2CCN1C(=O)OCc1cccc(F)c1 [Example 355, (S)-1-(2-Carboxymethoxy-5-chloro-phenyl)-3,4-dihydro-1H-isoquinoline-2-carboxylic acid 3-fluoro-benzyl ester]		2.01 nM	

SMILES	IC50 [1]	IC50 [3]	also measured
Cc1ccccc1CCC(=O)N1CCc2ccccc2C1c1cc(F)ccc1OCC(=O)O (racemic) [Example 134, (±)-{4-Fluoro-2-[2-(3-o-tolyl-propionyl)-1,2,3,4-tetrahydro-isoquinolin-1-yl]-phenoxy}-acetic acid]	31 nM		
O=C(O)COc1ccc(Cl)cc1[C@@H]1c2ccc(F)cc2CCN1C(=O)OCc1cccc(F)c1 [Example 353, (S)-1-(2-Carboxymethoxy-5-chloro-phenyl)-6-fluoro-3,4-dihydro-1H-isoquinoline-2-carboxylic acid 3-fluoro-benzyl ester]		2.79 nM	
COc1cc2c(ccn2CCC(=O)N2CCc3ccccc3C2c2cc(Cl)ccc2OCC(=O)O)cc1Cl (racemic) [Example 375]		81.8 nM	
COc1ccc2ccn(CCC(=O)N3CCc4ccccc4C3c3cc(Cl)ccc3OCC(=O)O)c2n1 (racemic) [Example 374]		12.3 nM	
O=C(O)COc1ccc(C(F)(F)F)cc1C1c2ccccc2CCN1C(=O)OCc1ccccc1 (racemic) [Example 20, (±)-1-(2-Carboxymethoxy-5-trifluoromethyl-phenyl)-3,4-dihydro-1H-isoquinoline-2-carboxylic acid benzyl ester]	50.7 nM		
N#Cc1ccc(OCC(=O)O)c(C2c3ccc(F)c(F)c3CCN2C(=O)OCc2ccccc2)c1 (racemic) [Example 16, (±)-1-(2-Carboxymethoxy-5-cyano-phenyl)-5,6-difluoro-3,4-dihydro-1H-isoquinoline-2-carboxylic acid benzyl ester]	4.34 nM		
COc1ccc(OCC(=O)O)c(C2c3ccccc3CCN2C(=O)OCc2ccccc2)c1 (racemic) [Example 24, (±)-1-(2-Carboxymethoxy-5-methoxy-phenyl)-3,4-dihydro-1H-isoquinoline-2-carboxylic acid benzyl ester]	83.7 nM		
O=C(O)COc1ccc(Cl)cc1C1c2ccccc2CCN1C(=O)OCc1ccc(Cl)cc1Cl (racemic) [Example 241]	0.96 nM		
O=C(O)COc1ccc(Cl)cc1C1c2ccccc2CCN1C(=O)OCc1cc(F)ccc1Cl (racemic) [Example 260]	15.1 nM		
O=C(O)COc1ccc(Cl)cc1C1c2ccccc2CCN1C(=O)OCc1ccc(F)cc1 (racemic) [Example 362]		14.3 nM	
CCCCNC(=O)N1CCc2ccccc2C1c1cc(Cl)ccc1OCC(=O)O (racemic) [Example 496]		62.7 nM	
CS(=O)(=O)c1ccc(OCC(=O)O)c(C2c3ccccc3CCN2C(=O)OCc2ccccc2)c1 (racemic) [Example 182]	308 nM		
O=C(O)COc1ccc(Cl)cc1C1c2ccc(F)cc2CCN1C(=O)CCCc1ccccc1F (racemic) [Example 436]		5.73 nM	
COc1ccccc1OC(=O)N1CCc2ccccc2C1c1cc(F)ccc1OCC(=O)O (racemic) [Example 168]	109 nM		
O=C(O)COc1ccc(Cl)cc1C1c2ccccc2CCN1C(=O)CCn1ccc2cc(Cl)ccc21 (racemic) [Example 385]		51.2 nM	
O=C(O)COc1ccc(Cl)cc1C1c2ccccc2CN1C(=O)CCn1ncc2c(F)cccc21 (single isomer, unassigned) [Example 547, (4-Chloro-2-{2-[3-(4-fluoro-indazol-1-yl)-propionyl]-2,3-dihydro-1H-isoindol-1-yl}-phenoxy)-acetic acid]		272 nM	
Cc1ccccc1CCC(=O)N1Cc2ccccc2C1c1cc(Cl)ccc1OCC(=O)O (racemic) [Example 506]		78.8 nM	
N#CNC(=O)COc1ccc(Cl)cc1[C@@H]1c2ccccc2CCN1C(=O)OCc1ccccc1 [Example 567, (S)-benzyl 1-(5-chloro-2-(2-cyanamido-2-oxoethoxy)phenyl)-3,4-dihydroisoquinoline-2(1H)-carboxylate]			IC50 [2]: 370 nM
